Source: PubChem BioAssay AID504726 (Broad Institute, 2011)
The source made the active and inactive calls.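 How the source made its calls: active means fitted half-maximal concentration for a cytotoxic signal drop no higher than ten times the top valid dose tested; inconclusive means flat curve between -70 and -30 percent, or an unreliable fit; inactive means flat within 30 percent, signal rise, or potency beyond limit.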

Assay: viability loss in HeLa cells – cell-based, 24 h, cherry-picked samples, cytotoxicity control, dose response (AID 504726);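 further: 0% = DMSO neutral controls and -100% = mitoxantrone positive controls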
Details: HeLa viability, CellTiter-Glo ATP luminescence, 24 h; at 35 µM (top of the series)

For `O=C(COc1cccc(F)c1)Nc1nc(-c2cccnc2)cs1`, the activity change, negative = cytotoxicity was -21.4% (inactive).
For `C=CCNC(=S)N1CCN(S(=O)(=O)c2ccc(C)cc2)CC1`, the activity change, negative = cytotoxicity was -6.85% (inactive).
For `Cc1nn(CC(=O)c2ccc(Br)s2)c(C)c1[N+](=O)[O-]`, the activity change, negative = cytotoxicity was -2.98% (inactive).
In the case of `Cc1ccc(NC(=O)CN(C)C(=O)c2nn(C)c(=O)c3ccccc23)cc1`, the activity change, negative = cytotoxicity is reported as -13.7% (inactive).
In the case of `O=C(O)c1cccc(-n2cccc2/C=C2/NC(=O)N(c3ccc(Cl)cc3)C2=O)c1`, the activity change, negative = cytotoxicity is reported as 0.035% (inactive).
With `CCNC(=O)COC(=O)c1cccc(Br)c1` the activity change, negative = cytotoxicity was -0.098% (inactive).
In the case of `COC(=O)c1ccccc1OCC(=O)N1CCN(c2ccc(Cl)cc2)CC1`, the activity change, negative = cytotoxicity is reported as -6.81% (inactive).
In the case of `Cc1cccc(-c2nsc(SCC(=O)Nc3nccs3)n2)c1`, the activity change, negative = cytotoxicity is reported as -0.205% (inactive).
For `CCOC(=O)C1(Cc2cccc(F)c2)CCN(Cc2c(C)nn(CC)c2C)CC1`, the activity change, negative = cytotoxicity was 0.828% (inactive).
For `O=C(O)c1ccccc1C1=Nc2ccc(O)cc2Oc2cc(O)ccc21`, the activity change, negative = cytotoxicity was -3.9% (inactive).
With `Cc1ccc(NS(=O)(=O)c2ccc(C(=O)NCCCN3CCCC3=O)cc2)cc1` the activity change, negative = cytotoxicity was -5.92% (inactive).
In the case of `O=c1nc(N2CCOCC2)ccn1-c1nc(-c2ccccc2)sc1-c1ccccc1`, the activity change, negative = cytotoxicity is reported as -8.43% (inactive).
With `CC(=O)NC(C(=O)c1ccccc1)C(=O)c1ccccc1` the activity change, negative = cytotoxicity was 7.04% (inactive).
In the case of `O=C1c2cccc3c(O)ccc(c23)C(=O)N1c1ccc(Cl)cc1`, the activity change, negative = cytotoxicity is reported as -8.83% (inactive).
With `COc1cc2c(cc1OC)-c1cc3ccc4c(c3c[n+]1CC2)OCO4` the activity change, negative = cytotoxicity was -12.1% (inactive).
In the case of `O=C(O)CCCN1C(=O)/C(=C/C=C/c2ccco2)SC1=S`, the activity change, negative = cytotoxicity is reported as -9.04% (inactive).
In the case of `CC(C)(C)OC(=O)N1CCC[C@H]1c1nnc(SCc2cccc(Cl)c2)o1`, the activity change, negative = cytotoxicity is reported as -8.06% (inactive).
For `COC(=O)C1=COC(C)C2CN3CCc4c([nH]c5ccccc45)C3CC12` (stereo unspecified), the activity change, negative = cytotoxicity was -14.1% (inactive).
In the case of `Cn1c(=O)oc2cc(S(=O)(=O)CCC(=O)N3CCN(c4ccccc4F)CC3)ccc21`, the activity change, negative = cytotoxicity is reported as -1.08% (inactive).
In the case of `NNC(=O)CC1=NNC(=O)C1`, the activity change, negative = cytotoxicity is reported as -0.701% (inactive).
In the case of `O=C(C1CCCO1)N1CCN(c2ncccn2)CC1` (stereo unspecified), the activity change, negative = cytotoxicity is reported as -0.396% (inactive).
In the case of `COc1ccc(C(=O)c2ccsc2N)cc1`, the activity change, negative = cytotoxicity is reported as 2.38% (inactive).
In the case of `CC(C)(CS(=O)(=O)[O-])NC(=O)CC[N+](C)(C)CCO`, the activity change, negative = cytotoxicity is reported as 2.35% (inactive).
For `COc1ccc(/C=N/NC(=O)c2ccc3nc[nH]c3c2)c(OC)c1`, the activity change, negative = cytotoxicity was 3.07% (inactive).
With `COc1cc(C(=O)O)cc(NC(=O)c2ccco2)c1OC` the activity change, negative = cytotoxicity was -8.57% (inactive).
With `O=[N+]([O-])c1cc(-n2cnnn2)ccc1N1CCC(Cc2ccccc2)CC1` the activity change, negative = cytotoxicity was -9.35% (inactive).
In the case of `c1ccc(-c2cn3nc(-c4ccccc4)c(-c4ccccc4)nc3n2)cc1`, the activity change, negative = cytotoxicity is reported as -12.6% (inactive).
For `O=c1c2cc(O)c(O)cc2oc2cc(O)c(C3OC(CO)C(O)C(O)C3O)c(O)c12` (stereo unspecified), the activity change, negative = cytotoxicity was 3.92% (inactive).
With `Cc1cc(NC(=O)CSc2nnc(COc3cccc(C)c3C)n2C)no1` the activity change, negative = cytotoxicity was 6.24% (inactive).
For `COc1ccc(S(=O)(=O)N2CCC(C(=O)N3CCCCC3)CC2)cc1`, the activity change, negative = cytotoxicity was -17.6% (inactive).
In the case of `CCc1noc(C)c1C(=O)N1CCCC(N2CCN(c3ccc(F)cc3)CC2)C1` (stereo unspecified), the activity change, negative = cytotoxicity is reported as -1.12% (inactive).
With `COCCNC(=O)Nc1ccc2nc(-c3ccco3)c(-c3ccco3)nc2c1` the activity change, negative = cytotoxicity was -18.1% (inactive).
For `COc1ccc(CNC(=O)C2CCC(CNC(=O)[C@@H]3Cc4ccccc4CN3)CC2)cc1` (stereo partly specified), the activity change, negative = cytotoxicity was -2.6% (inactive).
For `COc1ccc(-c2csc(NC(=O)CSc3nc(C)nc4sc(C(=O)O)c(C)c34)n2)cc1`, the activity change, negative = cytotoxicity was -1.52% (inactive).
For `CC1=NCCc2c1[nH]c1cc(O)ccc21`, the activity change, negative = cytotoxicity was -12.7% (inactive).
For `O=C(Nc1ccc(Br)cn1)c1cccc2ccccc12`, the activity change, negative = cytotoxicity was -12.4% (inactive).
With `CS(=O)(=O)Nc1nc2n(n1)C(c1ccccc1)C=C(c1ccc(Br)cc1)N2` (stereo unspecified) the activity change, negative = cytotoxicity was -2.61% (inactive).
For `CCOC(=O)CN1NC2(CCCCCC2)NC1=S`, the activity change, negative = cytotoxicity was -1.79% (inactive).
With `COc1cccc(C2CC(=O)Nc3cc4c(cc32)CCC4)c1` (stereo unspecified) the activity change, negative = cytotoxicity was 14.6% (inactive).
For `Nc1cccc(N2C(=O)c3cccc4c(N)ccc(c34)C2=O)c1`, the activity change, negative = cytotoxicity was 6.74% (inactive).
In the case of `COc1ccc(N(C(=O)c2ccc(Cl)cc2)C2=CC3CCC(C2)N3C)cc1` (stereo unspecified), the activity change, negative = cytotoxicity is reported as -1.73% (inactive).
With `COc1ccc(-c2nc(C(=O)O)cs2)cc1OC` the activity change, negative = cytotoxicity was -5.71% (inactive).
With `COc1cc2c(cc1OC)CN(C(=O)c1ccc(S(=O)(=O)N3CCCC3)cc1)CC2` the activity change, negative = cytotoxicity was 1.87% (inactive).
With `COC(=O)C[n+]1cccc2ccccc21` the activity change, negative = cytotoxicity was -6.11% (inactive).
With `COCCNC(=O)Cn1cc(/C=C2\C(=O)NC(=O)N(c3cccc(C)c3C)C2=O)c2ccccc21` the activity change, negative = cytotoxicity was -12.7% (inactive).
For `CCN(C(=O)COC(=O)c1nc2nc(C)cc(C)n2n1)C1CCCCC1`, the activity change, negative = cytotoxicity was 5.26% (inactive).
For `Nc1ccc(C(=O)Nc2ccc3c(O)cc(S(=O)(=O)O)cc3c2)cc1`, the activity change, negative = cytotoxicity was -4.38% (inactive).
For `O=C(O)c1ccc(NS(=O)(=O)c2ccc3c(c2)C2C=CCC2C(c2ccccc2F)N3)cc1` (stereo unspecified), the activity change, negative = cytotoxicity was -8.24% (inactive).
For `CC(C)c1ccc(NC(=O)Cn2c(=O)oc3cccnc32)cc1`, the activity change, negative = cytotoxicity was -7.38% (inactive).
In the case of `C=CC1=C(C(=O)O)N2C(=O)[C@@H](NC(=O)/C(=N/OCC(=O)O)c3csc(N)n3)[C@H]2SC1`, the activity change, negative = cytotoxicity is reported as -13.9% (inactive).
For `COC(=O)Cn1c(=NC(=O)c2sc3ccccc3c2Cl)sc2cc(S(N)(=O)=O)ccc21`, the activity change, negative = cytotoxicity was -2.51% (inactive).
For `CC(OC(=O)CCN1C(=O)C2CC=CCC2C1=O)C(=O)Nc1ccc(F)cc1` (stereo unspecified), the activity change, negative = cytotoxicity was -6.8% (inactive).
In the case of `Cc1ccccc1N1C(=O)c2cccc3c(N(C)CCO)ccc(c23)C1=O`, the activity change, negative = cytotoxicity is reported as -13.3% (inactive).
With `O=C(NCCN1CCN(C(=O)c2cccs2)CC1)c1cccs1` the activity change, negative = cytotoxicity was -5.34% (inactive).
With `Cc1c(Cl)cccc1NS(=O)(=O)c1ccc2c(c1)C1C=CCC1C(c1ccc(C(=O)O)cc1)N2` (stereo unspecified) the activity change, negative = cytotoxicity was -10.8% (inactive).
For `C=CCNC(=O)c1cn(CC)c2cc(N3CCN(C(=O)c4ccco4)CC3)c(F)cc2c1=O`, the activity change, negative = cytotoxicity was 6.14% (inactive).
For `COC(=O)c1cccc(COC(=O)c2ccccc2NC(=O)c2ccco2)c1`, the activity change, negative = cytotoxicity was -11.1% (inactive).
In the case of `Oc1ccc(-c2nc3ccccn3c2NCc2ccco2)cc1`, the activity change, negative = cytotoxicity is reported as -4.28% (inactive).
In the case of `CCCc1nnc(NC(=O)CCC(=O)NCc2ccc(OC)cc2)s1`, the activity change, negative = cytotoxicity is reported as -1.54% (inactive).
In the case of `Oc1ccc2nnc3c(Br)cnn3c2c1`, the activity change, negative = cytotoxicity is reported as -12.1% (inactive).
For `O=C(c1ccc2c(c1)CCN2S(=O)(=O)c1ccccc1)N1CCN(c2ccc(F)cc2)CC1`, the activity change, negative = cytotoxicity was -13.2% (inactive).
In the case of `COc1cc(OC)cc(C(=O)NC2CC3CCC(C2)N3C)c1` (stereo unspecified), the activity change, negative = cytotoxicity is reported as 3.6% (inactive).
In the case of `CN(C)/C=N/c1nc2nccc(-c3ccc(Cl)cc3)n2n1`, the activity change, negative = cytotoxicity is reported as -3.67% (inactive).
In the case of `CCOc1ccc(/C=C2\CCCc3c2nc2ccccc2c3C(=O)O)cc1OC`, the activity change, negative = cytotoxicity is reported as -5% (inactive).
In the case of `CCc1ccc(N2CC(C(=O)OCC(=O)N(CC)c3c(N)n(Cc4ccccc4)c(=O)[nH]c3=O)CC2=O)cc1` (stereo unspecified), the activity change, negative = cytotoxicity is reported as -9.97% (inactive).
In the case of `CC1CCCN(C(=O)C(=O)c2cn(CC(=O)N3CCCCCC3)c3ccccc23)C1` (stereo unspecified), the activity change, negative = cytotoxicity is reported as -6.83% (inactive).
For `Cn1c(=O)c(NCCO)c2c3c(cccc31)C(=O)c1ccccc1-2`, the activity change, negative = cytotoxicity was -6.61% (inactive).
For `Cc1cc(OCC(=O)OC(C)(C)C)c2c3c(c(=O)oc2c1)CCC3`, the activity change, negative = cytotoxicity was 0.477% (inactive).
With `CNc1ccc2c3c(cccc13)C(=O)N(C)C2=O` the activity change, negative = cytotoxicity was -12.7% (inactive).
With `Nc1ccc2nonc2c1[N+](=O)[O-]` the activity change, negative = cytotoxicity was 2.26% (inactive).
For `COc1ccc(Br)cc1CNC(=O)CCCc1cn(C)c2ccccc12`, the activity change, negative = cytotoxicity was -12.1% (inactive).
For `CCc1noc(C)c1C(=O)NCCc1c[nH]c2ccccc12`, the activity change, negative = cytotoxicity was -12.2% (inactive).
With `CCOCCCn1c(SCC(=O)NC(C)(C)C)nc2ccccc2c1=O` the activity change, negative = cytotoxicity was -18.7% (inactive).
With `C=CCOC(=O)C1=C[C@H](c2csc3ccccc23)C[C@H](OCc2ccc(CO)cc2)O1` the activity change, negative = cytotoxicity was -9.53% (inactive).
With `O=C(NCCCO)c1ccc2nc(-c3ccco3)c(-c3ccco3)nc2c1` the activity change, negative = cytotoxicity was -12.3% (inactive).
In the case of `COc1ccc(C2(CNC(=O)CCC(=O)O)CCCC2)cc1OC`, the activity change, negative = cytotoxicity is reported as -16% (inactive).
With `Cc1ccc(NC(=O)CN2C(=O)N/C(=C/c3cccn3-c3ccc(C(=O)O)cc3)C2=O)cc1` the activity change, negative = cytotoxicity was -4.45% (inactive).
With `CCCCn1nc(CC(=O)O)c2ccccc2c1=O` the activity change, negative = cytotoxicity was -0.208% (inactive).
In the case of `O=C(CN1CCN(C(=O)CNC(=O)c2ccc3c(c2)OCO3)CC1)Nc1ccc(F)cc1`, the activity change, negative = cytotoxicity is reported as -9.87% (inactive).
For `Cc1ccc(CSc2ncnc3onc(C)c23)cc1`, the activity change, negative = cytotoxicity was -13.2% (inactive).
In the case of `COc1ccc(C(C)=O)cc1CN(C)C`, the activity change, negative = cytotoxicity is reported as 9% (inactive).
With `CCOC(=O)C1CCCN(c2ccc([N+](=O)[O-])c3nonc23)C1` (stereo unspecified) the activity change, negative = cytotoxicity was -8.2% (inactive).
In the case of `CC(C)CC(=O)Nc1nnc(CSCc2ccc(F)cc2)s1`, the activity change, negative = cytotoxicity is reported as -9.25% (inactive).
With `Cn1cc(C(=O)c2ccc(Cl)cc2Cl)cc1C(=O)N/N=C(\N)COc1ccccc1` the activity change, negative = cytotoxicity was -7.82% (inactive).
With `O=C(c1cccc(S(=O)(=O)NCc2ccccc2)c1)N1CCN(c2ccccc2Cl)CC1` the activity change, negative = cytotoxicity was 0.089% (inactive).
In the case of `Cc1ccc(C)c(OCC(=O)N(Cc2nnc(-c3ccccc3Cl)o2)C2CC2)c1`, the activity change, negative = cytotoxicity is reported as -0.736% (inactive).
